Patent US20070248543A1 (ZGene A/S, priority 2004, published 2007)
Several values for one entry are separate records, joined by “and”; a condition that tells them apart may be missing. Equal entries are not always repeated. Where two headings read alike, the source gives them in different places.

Legend:
[1] = system: GgdCK1; assay: Steady state kinetics of purified recombinant GgdCK1; assay type: biochemical, Gallus gallus
Description: (§1) Purification of the Recombinant Enzymes. Transformants (KY895 cells transfected with PZG469 (GgcCK1) and PZG657 (GgdCK2)) were grown in LB medium containing […] ampicillin to A600 0.5-0.6, and the expression was induced with […] IPTG for 4 h at 25° C. […] The cells were homogenized using a French Press, subjected to centrifugation at 12,000×g for 30 minutes (4° C.), filtered through a […] Whatman glass microfiber filter and a […] cellulose acetate filter, and loaded onto the column (2 ml column packed with Glutathione-Sepharose 4 FF, Pharmacia) equilibrated in binding buffer A. Unbound material was removed by washing with 10 column volumes of buffer A. Subsequently the column was washed with 5 ml buffer A containing 10 mM ATP/MgCl2, and incubated for 1 h at room temperature and then 30 min at 4° C. to remove strongly bound contaminating proteins. Afterwards the column was washed again with 10 ml of buffer A and 2 ml of thrombin (50 U/ml) solution were applied on the column. The column was gently shaken overnight at 4° C. to cleave the recombinant protein from the GST-tag. Pure protein was eluted from the column in buffer A. Uncleaved fusion protein was eluted with buffer B (50 mM Tris-HCl pH 8, 10% glycerol, 0,1 % Triton X-100, 10 mM gluthatione reduced). Before storage of enzyme-containing fractions at −80° C., glycerol, Triton X-100, and dithiothreitol were added to 8%, 1% and 1 mM, respectively. Proteins were analyzed on Agilent 2100 Bioanalyzer using Protein Assay Chips.
Enzyme Assays. Bacteria or cell lines were grown as described, harvested and stored at −80° C. until activity testing. Cells were submitted to brief sonication in extraction buffer (50 mM Tris/HCl pH 7.5, 1 mM DTT, 10% (v/v) glycerol, 1% (v/v) Triton X-100, protease inhibitor cocktail Complete™ from Roche Diagnostics). Deoxyribonucleoside kinase activities were determined by initial velocity measurements based on four time samples by the DE-81 filter paper assay using tritium-labelled nucleoside substrates. App. 20 μg extracts were used in the assays. […] One unit of deoxyribonucleoside kinase activity is defined as 1 μmol of the corresponding monophosphate formed per minute. The obtained data were fitted to the Michaelis-Menten equation v=Vmax·[S]/(Km+[S]).

[2] = target: HsdCK (Homo sapiens, UniProt P27707); settings: cited from earlier work; for Kcat / Vmax: literature data
Sequence of HsdCK (P27707 whole entry): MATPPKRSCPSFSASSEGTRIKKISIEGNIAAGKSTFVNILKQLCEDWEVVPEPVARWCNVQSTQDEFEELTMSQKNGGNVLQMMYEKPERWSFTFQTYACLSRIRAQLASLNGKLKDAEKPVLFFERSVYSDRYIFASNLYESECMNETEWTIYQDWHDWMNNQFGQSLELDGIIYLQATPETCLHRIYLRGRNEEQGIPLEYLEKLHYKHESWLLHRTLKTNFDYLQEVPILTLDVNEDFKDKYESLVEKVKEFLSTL

[3] = system: MCF-7 (breast cancer cell line); assay: Cell proliferation assay (XTT cytotoxicity) of retrovirus-transduced MCF-7 cells; assay type: cell-based; settings: Homo sapiens, MCF7, read-out: IC50 value of ara-G, MCF-7 parental cell line
Description: HE 293 T packaging cells (ATCC CRL-11268) were cultured at 37° C. in OPTIMEM 1 medium (Life Technologies, Inc.) The constructed pLCXSN plasmid vector was transfected into the packaging cells using LipofectAMINE PLUS (Life Technologies, Inc.) according to the protocol provided by the supplier. The medium from the transfected cells was collected 48 hours after transfection, filtered through a 0.45 µm filter, pelleted by ultracentrifugation (50.000×g, 90 minutes at 4° C.) and dissolved in DMEM (Cambrex, Blo Whittaker Cat. No. 12-741-F).
The virus containing medium was subsequently used to transduce the cancer cell lines with a MOI of 5. […]
Cells were plated at densities range of 1.500-3.500 cells/well in 96-well plates coated with Poly-L-lysine (Sigma Cat. No. P6282) Gemcitabine (obtained from Orifarm A/S—DK) was added after 24 hours of incubation at 37° C., 5% CO2, and the medium containing the nucleoside analog. […] The IC50 value of the investigated drug/compound was calculated as the mean of these experiments using SigmaPlot® (SPSS Science, Dyrberg Trading—DK).
The sensitivity of the untransduced cells, and of the cells transduced with either the retroviral vector alone ore the vector containing chicken kinases for Gemcitabine and Ara-G was determined.

[4] = target: T1, human dGK (Homo sapiens, UniProt Q16854); settings: Zhu et al. 1998; cited from earlier work
T1 sequence (Q16854 40-277): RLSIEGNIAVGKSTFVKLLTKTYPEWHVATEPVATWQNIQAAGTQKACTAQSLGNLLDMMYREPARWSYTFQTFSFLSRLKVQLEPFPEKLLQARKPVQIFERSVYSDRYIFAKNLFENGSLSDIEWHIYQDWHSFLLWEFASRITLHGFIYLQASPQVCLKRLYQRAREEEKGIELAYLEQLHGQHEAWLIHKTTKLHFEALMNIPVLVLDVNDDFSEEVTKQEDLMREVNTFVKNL

[5] = target: GgdCK2 (Gallus gallus, UniProt Q5ZJM7); assay: Steady state kinetics of purified recombinant GgdCK2
Sequence of GgdCK2 (Q5ZJM7 whole entry): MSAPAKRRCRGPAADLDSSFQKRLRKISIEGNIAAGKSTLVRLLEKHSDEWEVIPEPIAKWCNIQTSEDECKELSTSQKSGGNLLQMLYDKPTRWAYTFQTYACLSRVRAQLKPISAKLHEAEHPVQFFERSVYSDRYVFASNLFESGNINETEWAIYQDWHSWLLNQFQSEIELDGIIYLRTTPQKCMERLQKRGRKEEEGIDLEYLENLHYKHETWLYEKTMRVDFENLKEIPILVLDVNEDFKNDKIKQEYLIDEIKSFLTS
Description: as §1
Enzyme Assays. Bacteria or cell lines were grown as described, harvested and stored at −80° C. until activity testing. Cells were submitted to brief sonication in extraction buffer (50 mM Tris/HCl pH 7.5, 1 mM DTT, 10% (v/v) glycerol, 1% (v/v) Triton X-100, protease inhibitor cocktail Complete™ from Roche Diagnostics). Deoxyribonucleoside kinase activities were determined by initial velocity measurements based on four time samples by the DE-81 filter paper assay using tritium-labelled nucleoside substrates. App. 20 μg extracts were used in the assays. […]

[6] = system: deoxyribonucleoside kinases in MCF-7 cell crude extract; assay: Deoxyribonucleoside kinase activity in crude extracts of MCF-7 cells; assay type: biochemical, human; settings: substrate at 200 μM; triplicates, mean with standard deviation
Description: Cells were submitted to brief sonication in extraction buffer (50 mM Tris/HCl pH 7.5, 1 mM DTT, 10% (v/v) glycerol, 1% (v/v) Triton X-100, protease inhibitor cocktail (CompleteTM from Roche Diagnostics). […] App. 20 μg extracts were used in the assays. The assay was done as described by Munch-Petersen et al. [Munch-Petersen, B., Knecht, W., Lenz, […]: Functional expression of a multisubstrate deoxyribonucleoside kinase from Drosophila melanogaster and its C-terminal deletion mutants; J.Biol.Chem. 2000 275 6673-6679].

[7] = system: deoxyribonucleoside kinases in DT 40 chicken cell line crude extract; assay: Deoxyribonucleoside kinase activity in crude extracts of DT 40 cells (DE-81 filter paper assay); assay type: biochemical; settings: substrate at 200 μM; triplicates, mean with standard deviation
Description: Deoxribonucleoside kinase activities in DT 40 chicken cell line DT 40 cells were grown in RPMI-1640 medium (Gibco) supplemented with 10% foetal calf serum, 1% chicken serum, 2 mM L-glutamine, 10 uM mercaptoethanol and penicillin-streptomycin mixture […], harvested and stored at −80° C. until activity testing. Cells were submitted to brief sonication in extraction buffer (50 mM Tris/HCl pH 7.5, 1 mM DTT, 10% (v/v) glycerol, 1% (v/v) Triton X-100, protease inhibitor cocktail (Complete™ from Roche Diagnostics). Deoxyribonucleoside kinase activities were determined in the DT 40 extracts by initial velocity measurements based on four time samples by the DE-81 filter paper assay using tritium-labelled nucleoside substrates. App. 20 μg extracts were used in the assays. The assay was done as described by Munch-Petersen et al. [Munch-Petersen, B., Knecht, W., Lenz, C., Sondergaard, L. & Piskur, J: Functional expression of a multisubstrate deoxyribonucleoside kinase from Drosophila melanogaster and its C-terminal deletion mutants; J.Biol.Chem. 2000 275 6673-6679].

[8] = system: deoxyribonucleoside kinase expressed in E. coli TOP10 extracts; assay: Deoxyribonucleoside kinase activity in extracts of transformed TOP10 cells; assay type: biochemical; settings: approximate
[9] = data from Bohman 1988 and Habteyesus 1991, read-out: Km

Km [1]	Molecule	Kcat [1] [s⁻¹]	Vmax [1] [nm/min/mg]	Deoxyribonucleoside kinase activity in crude extract of MCF-7 cells [6] [mU/mg]	Deoxyribonucleoside kinase activity in crude extract of DT 40 cells [7] [mU/mg]	other results
3.3 ± 0.4 µM	Nc1nc(Cl)nc2c1ncn2[C@H]1C[C@H](O)[C@@H](CO)O1 [CdA, 2-chloro-2′-deoxyadenosine]	0.64	1273 ± 38	–	–	–
6.3 ± 0.5 µM	Nc1ccn([C@@H]2O[C@H](CO)[C@@H](O)C2(F)F)c(=O)n1 [Gemcitabine, 2′,2′-difluorodeoxycytidine]	1.37	2712 ± 357	–	–	Km [2, 9]: 60 µM; Kcat [2]: 0.05 s⁻¹; Vmax [2]: 100 nm/min/mg
15.3 ± 2.3 µM	Nc1ccn([C@@H]2O[C@H](CO)[C@@H](O)[C@@H]2O)c(=O)n1 [araC, cytidine-arabinoside]	0.44	878 ± 33	–	–	Kcat [5]: 0.34 s⁻¹; Km [5]: 1470 ± 664 µM; Vmax [5]: 649 ± 267 nm/min/mg
4.8 µM	Nc1ccn([C@H]2C[C@H](O)[C@@H](CO)O2)c(=O)n1 [dCyd, deoxycytidine]	0.30	589 ± 34	0.01 ± 0.00	0.09 ± 0.01	–
61.8 ± 11.1 µM	Nc1nc2c(ncn2[C@H]2C[C@H](O)[C@@H](CO)O2)c(=O)[nH]1 [dGuo, deoxyguanosine]	0.20	394 ± 37	0.01 ± 0.00	0.09 ± 0.00	Km [2, 9]: 100 µM; Kcat [2]: 0.33 s⁻¹; Vmax [2]: 600 nm/min/mg; Km [4]: 7.6 µM

More lines, now with the values behind:

Molecule	Km [1]	Kcat [1] [s⁻¹]	Vmax [1] [nm/min/mg]	Deoxyribonucleoside kinase activity in crude extract of MCF-7 cells [6] [mU/mg]	Deoxyribonucleoside kinase activity in crude extract of DT 40 cells [7] [mU/mg]	other results
Nc1nc(F)nc2c1ncn2[C@@H]1O[C@H](CO)[C@@H](O)[C@@H]1O [F-araA, 2-Fluoroadenine 9-beta-D-Arabinofuranoside]	–	–	–	–	–	Km ([2]; data from Bohman 1988 and Habteyesus 1991): 200 µM
Nc1nc2c(ncn2[C@@H]2O[C@H](CO)[C@@H](O)[C@@H]2O)c(=O)[nH]1 [ara-G, 9-beta-D-arabinofuranosylguanine]	–	–	–	–	–	IC50 [3]: 1580 ± 158 µM; Km [4]: 8 µM; relative phosphorylation higher by recombinant human dGK than by recombinant human dCK [4]: 76 times
Nc1ncnc2c1ncn2[C@H]1C[C@H](O)[C@@H](CO)O1 [dAdo, deoxyadenosine]	79 µM and 82 µM	–	–	0.05 ± 0.00	0.1 ± 0.01	–
Cc1cn([C@H]2C[C@H](O)[C@@H](CO)O2)c(=O)[nH]c1=O [dThd, thymidine]	–	–	–	0.07 ± 0.00	0.1 ± 0.03	–
GgdCK1: Gallus gallus deoxycytidine kinase 1, 257 amino acid residues, SEQ ID No. 2	–	–	–	–	–	dCyd phosphorylation efficiency [8]: ~8 mU
